Results as given in patent US12083181B2, “Bi-functional molecules to degrade circulating proteins” (Yale University, priority 2018, dated 2024).

Columns and labels:
rhuMIF [1] = molecular target: T1, rhuMIF (Homo sapiens, UniProt P14174); experiment: Depletion of human MIF from supernatant of cultured HepG2 cells, sandwich ELISA; type: cell-based; conditions: 100 nM huMIF, after 24 hours
T1 sequence (P14174 2-115 limits assumed): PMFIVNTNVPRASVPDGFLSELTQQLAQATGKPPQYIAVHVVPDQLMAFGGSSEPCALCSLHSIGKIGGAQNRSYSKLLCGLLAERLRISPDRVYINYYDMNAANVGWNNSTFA
Description: In an experiment the results of which are presented in FIG. 3, bifunctional molecules were able to deplete human MIF from the supernatant of culture HepG2 cells. Briefly, human MIF (100 nM) was added to cell culture media in the presence of negative control MIF inhibitor 3w as well as bifunctional molecules MIF-NVS-PEGn-GN3, MIF-GN3, MIF-PEGn-Gn3, MIF-AcF3-1, MIF-AcF3-2, and MIF-AcF3-3. All molecules utilized a known MIF-binding ligand. Experiments were performed in 96 well plates (approximate surface area 0.3 cm^2). HepG2 cells were grown to 90% confluency in RPMI media, then washed with PBS (2×) and treated with serum-free media (optimem+0.1% BSA, +Pen/Strep) containing 100 nM huMIF (Cayman Chemical) and compounds (when applicable). Compounds were diluted from 1 mM stock solutions in DMSO. After 24 hours, a sample of the supernatant (2 uL) was collected, diluted 1:100, and analyzed for MIF content by sandwich ELISA (and incubated for 24 hours in the presence or absence of compound). Remaining MIF levels were determined by sandwich ELISA (biolegend monoclonal anti-MIF and biotinylated anti-MIF antibodies). Data represents the average of at least 3 biological replicates, and error bars represent a standard deviation. After 24 hours, up to 95.3% of the MIF had been depleted from cell culture media (in the case of MIF-AcF3-3).

rhuMIF [2] = molecular target: T1, rhuMIF; experiment: Trafficking of MIF internalized by HepG2 cells to lysosomes, immunofluorescence; type: cell-based; set-up: purchased Cayman Chemical; conditions: 100 nM rhuMIF, 200 nM compound, 12 hours
Description: In this experiment, cells were incubated with rhuMIF (Cayman) at a concentration of 100 nM with 200 nM MIF-GN3.

rhuMIF [3] = molecular target: T1, rhuMIF; experiment: Depletion of injected human MIF from mice, serum sandwich ELISA; type: in vivo; conditions: nude mice injected with 5 μg recombinant human MIF
Description: Human MIF has a half-life of approximately 40 minutes in mice. In this experiment, human recombinant MIF (Cayman chemical) was co-injected into mice with an anti-DNP IgG, which was used as an injection positive control. In particular, nude mice were injected with 5 μg recombinant human MIF and 200 μg anti-DNP IgG as an injection control (FIG. 4). MIF-GN3 was then injected at the concentration shown and blood drawn every twenty minutes over the course of two hours. Serum was diluted 1:100 and analyzed for MIF content by sandwich ELISA (biolegend monoclonal anti-MIF and biotinylated anti-MIF antibodies).

[4] = tested on: PC3 human prostate cancer cells; experiment: Mouse model of prostate cancer, tumor growth; type: in vivo; conditions: nude mice engrafted with PC3 cells, treatment initiated immediately
Source text: In this experiment, nude mice were engrafted with PC3 human prostate cancer cells. Treatment was then initiated immediately with either a non-bifunctional MIF inhibitor (3w), an anti-MIF antibody, or MIF-GN3.

Row | SMILES | MIF depleted from cell culture media (rhuMIF [1]) [%] | trafficking of internalized MIF to lysosomes (rhuMIF [2]) | serum huMIF levels (rhuMIF [3]; blood drawn over two hours, PBS control up to 150 ng/ml) | decrease in huMIF levels (rhuMIF [3]; versus PBS) | tumor growth [4]
1 | O=C(CCOCC(COCCC(=O)NCCOCCOCCOCCOC[C@@]12CO[C@@H](O1)[C@H](NC(=O)C(F)(F)F)[C@@H](O)[C@H]2O)(COCCC(=O)NCCOCCOCCOCCOC[C@@]12CO[C@@H](O1)[C@H](NC(=O)C(F)(F)F)[C@@H](O)[C@H]2O)NC(=O)CCCOc1ccc2nc(-c3cn(-c4ccc(O)c(F)c4)nn3)ccc2c1)NCCOCCOCCOCCOC[C@@]12CO[C@@H](O1)[C@H](NC(=O)C(F)(F)F)[C@@H](O)[C@H]2O [MIF-AcF3-3] | 95.3 |  |  |  | 
2 | CC(=O)N[C@H]1[C@H](OCCOCCOCCNC(=O)CCOCC(COCCC(=O)NCCOCCOCCO[C@@H]2O[C@H](CO)[C@H](O)[C@H](O)[C@H]2NC(C)=O)(COCCC(=O)NCCOCCOCCO[C@@H]2O[C@H](CO)[C@H](O)[C@H](O)[C@H]2NC(C)=O)NC(=O)CNC(=O)CCCOc2ccc3nc(-c4cn(-c5ccc(O)c(F)c5)nn4)ccc3c2)O[C@H](CO)[C@H](O)[C@@H]1O [MIF-GN3] |  | evidencing internalization in lysosomes | up to 20 ng/ml | substantial decrease in huMIF levels | showed a slowing of tumor growth
